Laboratory results as given in patent publication US20250230147A1, “LACTAMS AS CBL-B INHIBITORS” (Genentech, Inc., priority 2021, published 2025).
Counter-ions that a name gives are not always drawn.

Columns and labels:
c-Cbl = c-Cbl (Homo sapiens (Human), UniProt P22681); experiment: C-Cbl LCK Ub TR-FRET assay (c-cbl Lck HTRF); assay type: biochemical; details: for (fold-selectivity): C-cbl Lck HTRF IC50 relative to Cbl-b Lck HTRF IC50
Description: 6 μL of detection mixture was added to all wells and briefly centrifuged before incubating for 20 min at room temperature. […] IC50 was generated using no LCK as the low control and DMSO as the high control.

Cbl-b = Cbl-b (Homo sapiens (Human), UniProt Q13191); experiment: Cbl-b LCK Ub TR-FRET assay (Cbl-b Lck HTRF); assay type: biochemical
Description: Compounds were 3-fold serially diluted in DMSO in a 384-well polypropylene plate (#P-05525-BC; Labcyte) to generate a source plate with 10 concentrations of each compound, top concentration=2 mM. 80 nL of DMSO or compounds were transferred to each well of a black 384-well ProxiPlate (#6008260; PerkinElmer) using a Labcyte Echo. 1×assay buffer (50 mM HEPES pH7.0, 100 mM NaCl, 0.01% BSA, 0.01% Triton-X100, 1 mM DTT), 2×enzyme solution (16 nM Biotin-Cbl-b or 12 nM Biotin-c-Cbl in 1× assay buffer), 2×kinase mixture (120 nM His-LCK, 1 mM ATP, 10 mM MgCl2 in assay buffer) and 2.33×detection mixture (4.66×solution 1: 163 nM Anti-HA-D2 antibody (#610HADAB; PerkinElmer), 27.96 nM Streptavidin-EU (#AD0062; PerkinElmer), 1.398 mM EDTA in 1×assay buffer+4.66×solution 2: 2.796 μM UBE2D2/Methylated-HA-Ubiquitin thioester adduct (BostonBiochem) in 1×assay buffer) were prepared. 4 μL of 2× enzyme solution was added to each well containing compound, briefly centrifuged to mix, and incubated for 60 min at room temperature. 4 μL of 2× kinase mixture was added, briefly centrifuged to mix, and incubated for 90 min. at room temperature. 6 μL of detection mixture was added to all wells and briefly centrifuged before incubating for 20 min at room temperature. Plates were read for TR-FRET using an Envision at excitation 340 nm, emission at 615 and 665 nm, 4 flashes per well. IC50 was generated using no LCK as the low control and DMSO as the high control.
Cbl-b Lck HTRF data in Table 7 is measured according to Example 76 herein; C-cbl Lck HTRF data is measured according to Example 76 herein.

Sequence of Cbl-b (Q13191 40-426): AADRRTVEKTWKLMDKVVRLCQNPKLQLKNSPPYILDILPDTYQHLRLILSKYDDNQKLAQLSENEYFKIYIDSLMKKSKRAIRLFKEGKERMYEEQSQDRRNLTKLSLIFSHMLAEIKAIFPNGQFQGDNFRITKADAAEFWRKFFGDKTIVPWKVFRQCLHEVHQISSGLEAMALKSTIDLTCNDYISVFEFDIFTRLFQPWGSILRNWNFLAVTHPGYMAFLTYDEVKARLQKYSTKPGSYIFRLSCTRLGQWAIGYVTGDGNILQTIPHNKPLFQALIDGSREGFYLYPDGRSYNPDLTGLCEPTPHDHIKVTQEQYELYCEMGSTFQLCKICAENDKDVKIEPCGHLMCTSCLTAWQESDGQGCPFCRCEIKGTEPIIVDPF
Sequence of c-Cbl (P22681 47-435): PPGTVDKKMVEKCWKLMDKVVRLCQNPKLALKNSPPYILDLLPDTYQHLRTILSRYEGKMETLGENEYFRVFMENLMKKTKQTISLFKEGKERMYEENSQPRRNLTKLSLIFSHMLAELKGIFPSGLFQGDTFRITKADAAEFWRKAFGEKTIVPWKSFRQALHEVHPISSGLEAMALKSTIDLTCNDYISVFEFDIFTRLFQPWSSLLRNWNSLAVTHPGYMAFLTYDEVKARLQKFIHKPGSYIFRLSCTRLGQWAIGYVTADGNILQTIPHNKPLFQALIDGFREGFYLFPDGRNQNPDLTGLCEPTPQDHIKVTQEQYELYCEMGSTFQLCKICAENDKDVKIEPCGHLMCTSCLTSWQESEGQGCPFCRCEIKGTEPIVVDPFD

Row | IC50 (c-Cbl) [nM] | (fold-selectivity) (c-Cbl) | IC50 (Cbl-b) [nM] | SMILES
1 | 330 | 1.1x | 310 | Cn1cnnc1[C@H](F)C1(c2cccc(N3Cc4c(cc(Oc5cn[nH]c5)cc4C(F)(F)F)C3=O)c2)COC1 [Compound 116, (R)-6-((1H-pyrazol-4-yl)oxy)-2-(3-(3-(fluoro(4-methyl-4H-1,2,4-triazol-3-yl)methyl)oxetan-3-yl)phenyl)-4-(trifluoromethyl)isoindolin-1-one]
2 | 5.4 | (0.54x) | 10 | CCOc1cc(C2(Cc3nncn3C)CCC2)cc(N2Cc3c(cc(CN4CCN(C)C[C@@H]4C(C)C)cc3C(F)(F)F)C2=O)n1 [Compound 404, (S)-2-(6-ethoxy-4-(1-((4-methyl-4H-1,2,4-triazol-3-yl)methyl)cyclobutyl)pyridin-2-yl)-6-((2-isopropyl-4-methylpiperazin-1 - yl)methyl)-4-(trifluoromethyl)isoindolin-1-one]
3 | 12500 | (6.4x) | 1900 | Cn1cnnc1CC1(c2cc(NCCC(F)(F)F)nc(N3Cc4c(cccc4C(F)(F)F)C3=O)c2)COC1 [Compound 488, 2-(4-(3-((4-methyl-4H-1,2,4-triazol-3-yl)methyl)oxetan-3-yl)-6-((3,3,3-trifluoropropyl)amino)pyridin-2-yl)-4-(trifluoromethyl)isoindolin-1-one]
4 | 9.6 | (0.76x) | 13 | CCc1cc(C2(Cc3nncn3C)CCC2)cc(N2Cc3c(cc(CNC4(C)CCC4)cc3C(F)(F)F)C2=O)n1 [Compound 361, 2-(6-ethyl-4-(1-((4-methyl-4H-1,2,4-triazol-3-yl)methyl)cyclobutyl)pyridin-2-yl)-6-(((1-methylcyclobutyl)amino)methyl)-4-(trifluoromethyl)isoindolin-1-one]
5 | 9.3 | (0.77x) | 12 | Cn1cnnc1CC1(c2cccc(N3Cc4c(cc(CNC5(C)CCC5)cc4C(F)F)C3=O)c2)CC(F)(F)C1 [Compound 250, 2-(3-(3,3-difluoro-1-((4-methyl-4H-1,2,4-triazol-3-yl)methyl)cyclo-butyl)phenyl)-4-(difluoromethyl)-6-(((1-methylcyclobutyl)amino)methyl)isoindolin-1-one]
6 | 10 | (1.4x) | 7.9 | CC(C)[C@H]1CN(C)CCN1Cc1cc2c(c(C(F)(F)F)c1)CN(c1cc(C3([C@H](F)c4nncn4C)CCC3)cc(NCC3CC3)n1)C2=O [Compound 279, 2-(6-((cyclopropylmethyl)amino)-4-(1-((S)-fluoro(4-methyl-4H-1,2,4-triazol-3-yl)methyl)cyclobutyl)pyridin-2-yl)-6-(((S)-2-isopropyl-4-methylpiperazin-1-yl)methyl)-4-(trifluoromethyl)isoindolin-1-one]
7 | 53 | 1.6x | 32 | C[C@H](N)c1cc2c(c(C(F)(F)F)c1)CN(c1cccc(C3([C@@H](F)c4nncn4C)COC3)c1)C2=O [Compound 192, 6-((S)-1-aminoethyl)-2-(3-(3-((R)-fluoro(4-methyl-4H-1,2,4-triazol-3-yl)methyl)oxetan-3-yl)phenyl)-4-(trifluoromethyl)isoindolin-1-one]
8 | 180 | (1.3x) | 140 | Cn1cnnc1[C@@H](F)C1(c2cccc(N3Cc4c(cc(CN5CCC5)cc4C(F)(F)F)C3=O)c2)CC(F)(F)C1 [Compound 398, (S)-6-(azetidin-1-ylmethyl)-2-(3-(3,3-difluoro-1-(fluoro(4-methyl-4H-1,2,4-triazol-3-yl)methyl)cyclobutyl)phenyl)-4-(trifluoromethyl)isoindolin-1-one]
9 | 1600 | 1.7x | 940 | C#Cc1cccc2c1CN(c1cccc(C3([C@@H](F)c4nncn4C)COC3)c1)C2=O [Compound 211, (R)-4-ethynyl-2-(3-(3-(fluoro(4-methyl-4H-1,2,4-triazol-3-yl)methyl)oxetan-3-yl)phenyl)isoindolin-1-one]
10 | 1100 | (0.45x) | 2400 | CN(C)CCNc1cc(C2(Cc3nncn3C)CCC2)cc(N2Cc3c(cc(CNC4(C)CCC4)cc3C(F)(F)F)C2=O)n1 [Compound 337, 2-(6-((2-(dimethylamino)ethyl)amino)-4-(1-((4-methyl-4H-1,2,4-triazol-3-yl)methyl)cyclobutyl)pyridin-2-yl)-6-(((1-methylcyclobutyl)amino)methyl)-4-(trifluoromethyl)isoindolin-1-one]
11 | 11000 | (1.5x) | 7100 | Cc1ccn(CC2(c3cccc(N4Cc5c(cc(CN6CCN(C)C[C@@H]6C(C)C)cc5C(F)(F)F)C4=O)c3)COC2)n1 [Compound 264, (S)-6-((2-isopropyl-4-methylpiperazin-1-yl)methyl)-2-(3-(3-((3-methyl-1H-pyrazol-1-yl)methyl)oxetan-3-yl)phenyl)-4-(trifluoromethyl)isoindolin-1-one]
12 | 38 | 1.9x | 20 | CC(C)[C@H]1CNCCN1Cc1cc2c(c(C(F)(F)F)c1)CN(c1cccc(C3([C@H](F)c4nncn4C)COC3)c1)C2=O [Compound 97, 2-(3-(3-((S)-fluoro(4-methyl-4H-1,2,4-triazol-3-yl)methyl)oxetan-3-yl)phenyl)-6-(((S)-2-isopropylpiperazin-1-yl)methyl)-4-(trifluoromethyl)isoindolin-1-one]
13 |  | 3.3x |  | Cn1cnnc1[C@@H](F)[C@@](C)(F)c1cccc(N2Cc3c(cc(CN4CCC5(CC5)C4)cc3C(F)(F)F)C2=O)c1 [Compound 130, 6-(5-azaspiro[2.4]heptan-5-ylmethyl)-2-(3-((1R,2S)-1,2-difluoro-1-(4-methyl-4H-1,2,4-triazol-3-yl)propan-2-yl)phenyl)-4-(trifluoromethyl)isoindolin-1-one]
14 |  | (0.70x) |  | Cn1cnnc1[C@H](F)C1(c2cccc(N3Cc4c(Cl)cc(CNC5(C)CCC5)cc4C3=O)c2)COC1 [Compound 470, (R)-4-chloro-2-(3-(3-(fluoro(4-methyl-4H-1,2,4-triazol-3-yl)methyl)oxetan-3-yl)phenyl)-6-(((1-methylcyclobutyl)amino)methyl) isoindolin-1-one]
15 |  | 3.6x |  | Cn1cnnc1[C@@H](F)[C@](C)(F)c1cccc(N2Cc3c(cc(CN4CCC5(CC5)C4)cc3C(F)(F)F)C2=O)c1 [Compound 129, 6-(5-azaspiro[2.4]heptan-5-ylmethyl)-2-(3-((1R,2R)-1,2-difluoro-1-(4-methyl-4H-1,2,4-triazol-3-yl)propan-2-yl)phenyl)-4-(trifluoromethyl)isoindolin-1-one]
16 |  | 3.4x |  | Cn1cnnc1[C@H](F)[C@@](C)(F)c1cccc(N2Cc3c(cc(CN4CCC5(CC5)C4)cc3C(F)(F)F)C2=O)c1 [Compound 128, 6-(5-azaspiro[2.4]heptan-5-ylmethyl)-2-(3-((1S,2S)-1,2-difluoro-1-(4-methyl-4H-1,2,4-triazol-3-yl)propan-2-yl)phenyl)-4-(trifluoromethyl)isoindolin-1-one]

Row | SMILES | IC50 (c-Cbl) [nM] | (fold-selectivity) (c-Cbl) | IC50 (Cbl-b) [nM]
17 | CNc1cc(C2(Cc3nncn3C)CCC2)cc(N2Cc3c(cc(CNC4(C)CCC4)cc3C(F)(F)F)C2=O)n1 [Compound 310, 2-(4-(1-((4-methyl-4H-1,2,4-triazol-3-yl)methyl)cyclobutyl)-6-(methylamino)pyridin-2-yl)-6-(((1-methylcyclobutyl)amino)methyl)-4-(trifluoromethyl)isoindolin-1-one formate] | 11 |  | 10
18 | Cn1cnnc1CC1(c2cccc(N3Cc4c(cc(CNCC5COC(C)(C)O5)cc4C(F)(F)F)C3=O)c2)CC(F)(F)C1 (stereo not drawn) [Compound 357, 2-(3-(3,3-difluoro-1-((4-methyl-4H-1,2,4-triazol-3-yl)methyl)cyclobutyl)phenyl)-6-((((2,2-dimethyl-1,3-dioxolan-4-yl)methyl)amino)methyl)-4-(trifluoromethyl)isoindolin-1-one formate] | 41 |  | 38
19 | CCCNCc1cc2c(c(C(F)(F)F)c1)CN(c1cccc(C3([C@@H](F)c4nncn4C)COC3)c1)C2=O [Compound 228, (R)-2-(3-(3-(fluoro(4-methyl-4H-1,2,4-triazol-3-yl)methyl)oxetan-3-yl)phenyl)-6-((propylamino)methyl)-4-(trifluoromethyl)isoindolin-1-one formate] | 96 |  | 12
20 | Cn1cnnc1CC1(c2cc(Cl)nc(N3Cc4c(cc(CNC5(C)CCC5)cc4C(F)(F)F)C3=O)c2)CCC1 [Compound 351, 2-(6-chloro-4-(1-((4-methyl-4H-1,2,4-triazol-3-yl)methyl)cyclobutyl)pyridin-2-yl)-6-(((1-methylcyclobutyl)amino)methyl)-4-(trifluoromethyl)isoindolin-1-one formate] | 19 |  | 33
